Data set [1] has as its target T1, rat liver microsomal glucose-6-phosphate translocase (Rattus norvegicus, UniProt F7EWB7).
T1 construct: rat liver microsomal glucose-6-phosphate translocase; from tissue; host or cells: rat liver microsomes (untreated and Triton X-100 disrupted)
T1 sequence (F7EWB7 1-429): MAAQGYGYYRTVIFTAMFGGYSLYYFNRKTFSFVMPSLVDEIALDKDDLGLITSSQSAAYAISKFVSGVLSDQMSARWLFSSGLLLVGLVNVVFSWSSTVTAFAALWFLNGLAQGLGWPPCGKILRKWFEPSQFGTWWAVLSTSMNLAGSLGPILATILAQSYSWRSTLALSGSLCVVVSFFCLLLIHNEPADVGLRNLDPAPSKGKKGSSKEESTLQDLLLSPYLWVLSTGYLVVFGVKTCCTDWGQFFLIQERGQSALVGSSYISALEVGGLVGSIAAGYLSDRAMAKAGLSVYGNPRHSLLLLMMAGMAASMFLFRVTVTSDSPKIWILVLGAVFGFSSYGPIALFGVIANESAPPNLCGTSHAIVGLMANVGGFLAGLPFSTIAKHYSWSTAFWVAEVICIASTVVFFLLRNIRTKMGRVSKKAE
As to the kind of experiment: inhibition of rat liver microsomal glucose-6-phosphate translocase (colorimetric assay, untreated and Triton X-100 disrupted microsomes). In kind it is biochemical. The procedure:
(§1) The fermentation is preferably carried out for 40 to 90 hours when an optimal yield of the compounds of the present invention are obtained. It is particularly preferred to carry out the fermentation for 45-70 hours under submerged conditions for example in shake flasks as well as in laboratory fermenters. If desired, antifoam agents like Desmophen® (Polypropylene oxide, Bayer A G, Leverkusen, Germany) may be used in the fermentation process. The progress of fermentation and formation of Kodaistatins A, B, C and D can be detected by measuring the […] in untreated and Triton X-100® disrupted rat liver microsomes in microliter plates at room temperature using a colorimetric assay as described in Methods in Enzymology, 174,58-67 (1989) with some modification and by HPLC In the resulting culture broth, kodaistatin B, C and D are present as minor compounds, and kodaistatins A as a major compound. Thus, the active crude material can be recovered by extraction of mycelium with water miscible solvents such as methanol, ethanol and acetone, and extraction of the culture filtrate with a water immiscible solvent such as ethyl acetate, dichioromethane, chloroform or butanol at pH 5-8 or by hydrophobic interaction chromatography using polymeric resins such as "Diaion HP-20®" (Mitsubishi Chemical Industries Limited, Japan), "Amberlite XAD®" (Rohm and Haas Industries U.S.A.) activated charcoal or ion exchange chromatography at pH 5-8. The preferred method is adsorption over "Diaion HP-20®" followed by desorption of the compound using eluants such as water, methanol, acetone or acetonitrile or combinations thereof. Concentration and lyophilization of the active eluates gives the crude compound.
Kodaistatins A, B, C and D inhibit potently the activity of rat liver microsomal glucose-6-phosphate translocase.
For orientation: Liver microsomes are a subcellular fraction often used to study metabolism.

The nature of another data set: solubility. The following applies: solvents in which soluble. In kind it is physicochemical.
Another data set addresses T2, phosphatase (Rattus norvegicus, UniProt P43428).
T2 construct: from tissue; host or cells: rat liver microsomes, detergent (Triton X-100) disrupted
T2 sequence (P43428 1-357): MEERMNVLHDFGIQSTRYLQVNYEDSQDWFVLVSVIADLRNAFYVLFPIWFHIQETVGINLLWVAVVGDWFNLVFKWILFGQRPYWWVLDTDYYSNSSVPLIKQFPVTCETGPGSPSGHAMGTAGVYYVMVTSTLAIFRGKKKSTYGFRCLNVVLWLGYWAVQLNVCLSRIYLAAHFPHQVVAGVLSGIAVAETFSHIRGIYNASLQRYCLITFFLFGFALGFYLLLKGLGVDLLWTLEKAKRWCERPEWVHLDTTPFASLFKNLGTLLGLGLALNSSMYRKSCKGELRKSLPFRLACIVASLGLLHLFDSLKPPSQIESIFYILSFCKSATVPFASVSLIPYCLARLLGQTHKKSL
As to the kind of experiment: inhibition of phosphatase activity in detergent-disrupted microsomes. The format is biochemical. Particulars: for IC50: detergent-disrupted microsomes. On the procedure: as §1

The test system of data set [2] is phosphate/pyrophosphate translocase. As to the kind of experiment: effect on activity of phosphate/pyrophosphate translocase. In kind it is biochemical, rat.
The subject of data set [3] is fructose-induced gluconeogenesis. As to the kind of experiment: glucose output of isolated rat hepatocytes, fructose-induced gluconeogenesis. In kind it is cell-based. The following applies: Hepatocyte, read-out: IC50, inhibition of fructose-induced gluconeogenesis. An excerpt:
(§2) Kodaistatin A was further evaluated in isolated rat hepatocytes for its effect on glucose output.

The test system of data set [4] is glucagon-induced glycogenolysis. As to the kind of experiment: glucose output of isolated rat hepatocytes, glucagon-induced glycogenolysis. The format is cell-based. The following applies: Hepatocyte, read-out: IC50, inhibition of glucagon-induced glycogenolysis.
Source text: as §2

Where [5] appears, read: rat liver microsomes, read-out: approximate IC50, glucose-6-phosphate translocase (converted).

In general, IC50 refers to the midpoint of a concentration-inhibition curve.

≈ marks a conversion by molar mass, not a printed value. Like-named read-outs stand apart in the source and are kept apart here.

Regarding `CCC(C)C=C(C)C=CC(=O)CC1=C(c2cc(O)c(O)cc2C2=C(O)C(=Cc3ccc(O)cc3)OC2=O)C(O)(C(C)=O)C(O)C1=O` (single isomer, unassigned) [Kodaistatin B], the IC50 in data set [1] (setting [5]) is approximately 476 nM. Moreover, the Solubility entry in the data set “solubility” is “MeOH and DMSO”.
For the compound `CCC(C)C=C(C)C=CC(=O)CC1=C(c2cc(O)c(O)cc2C2=C(O)C(=Cc3ccc(O)c(O)c3)OC2=O)C(O)(C(C)=O)C(O)C1=O` (centres unmarked) [Kodaistatin D], in data set [1] (setting [5]), the IC50 was approximately 773 nM. In the data set “solubility”, the Solubility entry was “MeOH and DMSO”.
For `CCC(C)C=C(C)C=CC(=O)CC1=C(c2cc(O)c(O)cc2C2=C(O)C(=Cc3ccc(O)c(O)c3)OC2=O)C(O)(C(C)=O)C(O)C1=O` (centres unmarked) [Kodaistatin C], the IC50 in data set [1] (setting [5]) is approximately 139 nM. For the same compound, the Solubility result in the data set “solubility” is “MeOH and DMSO”.
`CCC(C)/C=C(C)/C=C/C(=O)CC1=C(c2cc(O)c(O)cc2C2=C(O)/C(=C/c3ccc(O)cc3)OC2=O)C(O)(C(C)=O)C(O)C1=O` (centres unmarked) [Kodaistatin A]: the “mode of inhibition of glucose-6-phosphate translocase” value in data set [1] is “reversible and competitive inhibitor”. The IC50 is 317 nM in data set [1] (Example V, isolation and purification, read-out: IC50, glucose-6-phosphate translocase, material at stages of purification (converted)); approximately 300 nM in data set [1] (rat liver microsomes, molar value in parentheses, read-out: approximate IC50, glucose-6-phosphate translocase (converted)); approximately 317 nM in data set [1] (setting [5]); approximately 317000 nM at phosphatase; approximately 300000 nM at phosphatase (molar value in parentheses); approximately 25 µg/mL (≈ 39.6 µM) in data set [3]. Further, the IC50 in data set [4] was approximately 50 µg/mL (≈ 79.3 µM). In addition, the “specificity for translocase over phosphatase” value on phosphatase (translocase vs phosphatase) was “high degree of specificity for translocase”. Moreover, the “effect on activity of phosphate/pyrophosphate translocase” value in data set [2] was “did not affect the activity”. Also, the Solubility entry in the data set “solubility” is “MeOH, CH3 CN and DMSO”.

For the origin of these results see patent publication US6166070A, “Kodaistatins A, B, C and D, a process for their production and their use” (Aventis Pharma Deutschland GmbH, priority 1997, dated 2000).
